Assay results as given in ChEMBL document CHEMBL1938302, “Synthesis of novel histamine H4 receptor antagonists” (Bioorg Med Chem Lett, 2012).
Several values for one entry are separate records, joined by “and”; a condition that tells them apart may be missing. Identical values can stand only once. Activity calls are given as the source filed them. The rule behind the calls is not given here.

Experiments:
Histamine H4 receptor [1] = target: T1, Histamine H4 receptor (Homo sapiens, UniProt Q9H3N8); assay: Displacement of [3H]histamine from human recombinant histamine H4 receptor expressed in CHO cells coexpressing Ga15 by radioligand filtration binding assay; type: cell-based
Histamine H4 receptor [2] = target: T1, Histamine H4 receptor; assay: Antagonist activity at human histamine H4 receptor expressed in HEK293 cells assessed as rev inhibition of forskolin-stimulated cAMP accumulation by CRE-betalactamase reporter gene assay; type: functional, cell-based
Histamine H3 receptor = Histamine H3 receptor (Homo sapiens, UniProt Q9Y5N1); assay: Binding affinity to human histamine H3 receptor
[3] = Chemical stability of the compound in methanol; type: physicochemical
[4] = Metabolic stability in human liver microsomes; type: ADME, Microsome; conditions: read-out: Stability
Rattus norvegicus [5] = assay: Clearance in rat at 10 mg/kg, sc; type: ADME, organism-based; design: dose 10 mg/kg, route subcutaneous; conditions: in vivo
[6] = Half life in rat at 10 mg/kg, sc; type: ADME, organism-based; design: dose 10 mg/kg, route subcutaneous; conditions: in vivo
Rattus norvegicus [7] = assay: Volume of distribution in rat at 10 mg/kg, sc; type: ADME, organism-based; design: dose 10 mg/kg, route subcutaneous; conditions: in vivo
Rattus norvegicus [8] = assay: Clearance in rat at 1 mg/kg, iv; type: ADME, organism-based; design: dose 1 mg/kg, route intravenous; conditions: in vivo
[9] = Half life in rat at 1 mg/kg, iv; type: ADME, organism-based; design: dose 1 mg/kg, route intravenous; conditions: in vivo
[10] = Volume of distribution in rat at 1 mg/kg, iv; type: ADME, organism-based; design: dose 1 mg/kg, route intravenous; conditions: in vivo
[11] = Oral bioavailability in rat; type: ADME, organism-based; conditions: in vivo
[12] = Metabolic stability in rat liver microsomes; type: ADME, Microsome; conditions: read-out: Stability
[13] = Half life in rat; type: ADME, organism-based; conditions: in vivo
[14] = Half life in rat at 3 mg/kg, sc; type: ADME, organism-based; design: dose 3 mg/kg, route subcutaneous; conditions: in vivo
Rattus norvegicus [15] = assay: Volume of distribution in rat at 3 mg/kg, sc; type: ADME, organism-based; design: dose 3 mg/kg, route subcutaneous; conditions: in vivo

T1 sequence (Q9H3N8 whole entry): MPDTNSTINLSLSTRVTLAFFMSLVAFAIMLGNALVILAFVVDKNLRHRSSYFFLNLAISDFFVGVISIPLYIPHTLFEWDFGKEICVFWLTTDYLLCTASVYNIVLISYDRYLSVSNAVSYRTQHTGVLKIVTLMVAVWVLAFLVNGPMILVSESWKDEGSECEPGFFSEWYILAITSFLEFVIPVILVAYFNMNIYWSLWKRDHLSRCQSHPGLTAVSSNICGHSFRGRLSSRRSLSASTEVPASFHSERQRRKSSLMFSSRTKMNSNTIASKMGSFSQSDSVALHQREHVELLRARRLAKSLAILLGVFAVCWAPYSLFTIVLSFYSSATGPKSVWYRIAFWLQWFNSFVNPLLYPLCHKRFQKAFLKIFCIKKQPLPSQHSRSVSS
Histamine H3 receptor, sequence (Q9Y5N1 whole entry): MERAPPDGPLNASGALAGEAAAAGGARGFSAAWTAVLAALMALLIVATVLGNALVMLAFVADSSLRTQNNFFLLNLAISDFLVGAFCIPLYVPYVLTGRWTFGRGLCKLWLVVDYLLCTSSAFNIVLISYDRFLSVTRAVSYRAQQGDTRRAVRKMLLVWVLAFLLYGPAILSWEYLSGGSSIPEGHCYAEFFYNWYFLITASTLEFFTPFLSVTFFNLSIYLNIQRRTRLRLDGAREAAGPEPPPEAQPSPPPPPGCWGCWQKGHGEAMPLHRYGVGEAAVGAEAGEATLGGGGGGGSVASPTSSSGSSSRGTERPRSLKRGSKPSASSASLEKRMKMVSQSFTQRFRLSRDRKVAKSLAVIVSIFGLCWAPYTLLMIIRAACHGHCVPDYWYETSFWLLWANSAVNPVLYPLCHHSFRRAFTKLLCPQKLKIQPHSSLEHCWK

Row | Structure (SMILES) | Ki (Histamine H4 receptor [1]) [nM] | Ki (Histamine H4 receptor [2]) [nM] | Ki (Histamine H3 receptor) | Stability [3] | further results
1 | CN1C[C@@H]2CN(C(=O)c3cc4cccnc4[nH]3)C[C@@H]2C1 | 973 | – | – | – | –
2 | CN1CCN(C(=O)c2cn3cc(Cl)ccc3n2)CC1 | 3170 | > 11400 | 28600 nM | – | –
3 | CN1C[C@@H]2CN(C(=O)c3cc4ccc(Cl)nc4[nH]3)C[C@@H]2C1 | 2090 | – | – | – | –
4 | CN1C[C@@H]2CN(C(=N)c3nc4cc(F)ccc4[nH]3)C[C@@H]2C1 | 4.6 | 9.1 | 1190 nM | Unstable | –
5 | CN1C[C@@H]2CN(C(=N)c3nc4ccccc4[nH]3)C[C@@H]2C1 | 6.5 | 12.4 | 3810 nM | Unstable | –
6 | CN1C[C@@H]2CN(C(=O)c3nc4ccc(F)c(F)c4[nH]3)C[C@@H]2C1 | 74 | 134 | – | – | –
7 | Cc1c(F)ccc2nc(C(=N)N3C[C@H]4CN(C)C[C@H]4C3)[nH]c12 | 4.6 | 9.3 | – | Unstable | –
8 | Clc1ccc2[nH]c(C3=NCCN3)nc2c1 | – | – | – | Stable | inhibition (Histamine H4 receptor [1]): inactive; inhibition (Histamine H4 receptor [2]): inactive
9 | CN1C[C@@H]2CN(C(=N)c3nc4c(F)c(F)c(F)cc4[nH]3)C[C@@H]2C1 | 70 | 20 | > 20000 nM | Unstable | –
10 | CN1CCN(C(=O)c2cc3cccnc3[nH]2)CC1 | 3100 | > 29900 | 36600 nM | – | –
11 | CN1CCN(C(=O)c2nc3cc(Cl)ccc3[nH]2)CC1 | – | – | 20000 nM | – | microsomal CLint [4]: 19 µL/min/mg; clearance (Rattus norvegicus [5]): 700 mL/min/kg; half-life [6]: 42 min; Vd (Rattus norvegicus [7]): 23 L/kg
12 | CN1C[C@@H]2CN(C(=O)c3nc4cc(F)ccc4[nH]3)C[C@@H]2C1 | – | 145 | 15500 nM | – | microsomal CLint [4]: < 7 µL/min/mg; clearance (Rattus norvegicus [8]): 161 mL/min/kg; half-life [9]: 42 min; Vd [10]: 6.1 L/kg
13 | CN1C[C@@H]2CN3C(c4nc5cc(F)c(F)cc5[nH]4)=NC[C@H]3[C@@H]2C1 | – | – | – | Stable | inhibition (Histamine H4 receptor [1]): inactive; inhibition (Histamine H4 receptor [2]): inactive
14 | CN1C[C@@H]2CN(C(=N)c3nc4cc(F)c(F)cc4[nH]3)C[C@@H]2C1 | 9.5 | 17.2 | 3090 nM | Unstable | microsomal CLint [4]: < 7 µL/min/mg; clearance (Rattus norvegicus [8]): 31 mL/min/kg; half-life [9]: 660 min; Vd [10]: 48 L/kg; bioavailability [11]: 20%
15 | CN1C[C@@H]2CN(C(=O)c3cc4cc(Cl)ccc4[nH]3)C[C@@H]2C1 | – | – | 8750 nM | – | microsomal CLint [4]: < 7 µL/min/mg
16 | CCN1C[C@@H]2CN(C(=O)c3nc4cc(Cl)ccc4[nH]3)C[C@@H]2C1 | 1960 | 3300 | – | – | –
17 | CC(C)N1C[C@H]2CN(C(=O)c3nc4cc(Cl)ccc4[nH]3)C[C@H]2C1 | 2670 | 4490 | – | – | –
18 | CN1C[C@@H]2CN(C(=O)c3nc4cc(F)c(F)cc4[nH]3)C[C@@H]2C1 | – | 236 | 17900 nM | – | microsomal CLint [4]: < 7 µL/min/mg; microsomal CLint [12]: 40 µL/min/mg; clearance (Rattus norvegicus [8]): 58 mL/min/kg; half-life [9]: 48 min
19 | CN1C[C@@H]2CN(C(=O)c3nc4ccccc4[nH]3)C[C@@H]2C1 | 102 | 189 | – | – | –
20 | CN1C[C@@H]2CN(C(=N)c3nc4c(F)c(F)ccc4[nH]3)C[C@@H]2C1 | 49 | – | – | Unstable | –
21 | CN1C[C@@H]2CN(C(=N)c3nc4cc(Cl)ccc4[nH]3)C[C@@H]2C1 | – | 56 | – | Unstable | –
22 | O=C(c1nc2cc(Cl)ccc2[nH]1)N1C[C@H]2CNC[C@H]2C1 | 5080 | 8180 | – | – | –
23 | CN1C[C@@H]2CN(C(=O)c3nc4cc(Cl)ccc4[nH]3)C[C@@H]2C1 | 129 | 218 | – | – | microsomal CLint [4]: < 7 µL/min/mg; microsomal CLint [12]: 36 µL/min/mg
24 | CN1CCN(C(=O)c2cn3ccncc3n2)CC1 | 20100 | > 20000 | – | – | –
25 | CN1CCN(C(=O)c2cc3cc(Cl)ccc3[nH]2)CC1 [JNJ-7777120] | – | – | 15300 nM and > 20000 nM | – | half-life [13]: 42 min; half-life [14]: 12 min; Vd (Rattus norvegicus [15]): 2.3 L/kg
26 | CN1C[C@@H]2CN(C(=O)c3cc4cc(Cl)cnc4[nH]3)C[C@@H]2C1 | 83 | – | – | – | –
27 | Cc1c(F)ccc2nc(C(=O)N3C[C@H]4CN(C)C[C@H]4C3)[nH]c12 | 52 | 97 | – | – | microsomal CLint [4]: < 7 µL/min/mg; microsomal CLint [12]: 214 µL/min/mg
